Reference: patent US11872262B2, “Means and methods for treating bacterial infections” (VIB VZW, priority 2017, dated 2024)
Values after ≈ are worked out from the molar mass of the structure shown. Where two headings read alike, the source gives them in different places. Residues, ends and D or L forms follow the SMILES beside them.

How the values were obtained:
E. coli O157:H7 = type: cell-based, Escherichia coli; settings: screening-stage peptides tested at 1, 6, 12 and 25 μg/mL
Procedure, shortened: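 Tandem-repeat aggregation-prone-region peptides from DMSO stocks were tested for growth inhibition of E. coli O157:H7 at 1, 6, 12 and 25 μg/mL.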

[1] = tested on: E. coli K-12 BW25113 strain (KEIO collection); type: cell-based, Escherichia coli
Protocol: (§1) The MICs of active peptides were determined via the Broth microdilution assay according to the EUCAST guideline, which were performed in 96-well polystyrene flat-bottom microtiter plates (BD Biosciences). Briefly, a single colony was inoculated into 5 mL LB medium and grown to the end-exponential growth phase in a shaking incubator at 37° C. Cultures were subsequently diluted to an OD600 of 0.002 ([…]) in fresh LB medium. 100 μL of LB medium with different concentration of peptides ranging from 100 μg/mL to 1 μg/mL were serially diluted to the sterile 96-well plate (at least 3 wells in each plate). Afterward, 100 μL of the diluted bacteria were pipetted into 96-well plates containing different concentration of peptides. In each plate, the grown bacteria with maximum concentration of carrier and medium were considered as positive and negative controls, respectively. Thereafter, 96-well plates was statically incubated overnight at 37° C. to allow bacterial growth. A multipurpose UV/VIS plate reader at OD590 nm, 1 s shaking measured the absorbance of the growth bacteria using a Perkin Elmer spectrophotometer (1420 Multilabel Counter Victor 3).

E. coli O157 = type: cell-based, Escherichia coli; settings: E. coli 0157 (Table 2)
Protocol: as §1

HeLa cells = experiment: In vitro mammalian cytotoxicity (LDH release, CellTiter Blue); type: cell-based, human
Protocol: Mammalian cytotoxicity was measured using the LDH release (Roche, Mannheim, Germany) and CellTiter Blue (Promega) methods. Briefly, HeLa cells (obtained from Bart De Strooper lab, tested to be mycoplasma free) were seeded in 96-well round bottom plates at a concentration of 3×10^5 cells/mL in Dulbecco's Modified Eagle's Medium and treated by different concentrations of peptides. Cells treated with 1% Triton™ X-100 and vehicle were considered as positive and negative controls, respectively. Micro-plates were incubated at 37° C., 5% CO2 and 90% humidity for 4 hours. The micro-plate was centrifuged at 1350 rpm for 10 minutes. 100 μL of supernatant was transferred into clear 96-well flat bottom microplates. In order to determine LDH activity in the supernatants, 100 μl reaction mix (catalyst and dye solution) were added to each well and incubated for 30 min at RT in the dark and the LDH reaction was stopped by adding 100 ul of the Stop solution. The absorbances of the samples were measured at 490 nm. The cell viability was calculated using the formula: (exp. value−negative control value)/(positive control value−negative control value)*100. The amount of absorbance is proportional to the number of living cells and corresponds to the cells' metabolic activity.

In vivo toxicity test = experiment: In vivo toxicity test; design: species or system Swiss mice
Protocol: The procedures used in the assays were approved by the local Animal Ethical Committee and conform to international standards of animal welfare (Approval P067/2015 of the Ethical Committee of KU Leuven). […] Briefly, 5-6 week-old Swiss females were divided into […] (6 animals/group) and administered 30 mg/kg of Colpeptin1 (group A) or vehicle (physiological water pH 7.5) (group b) once a day for 18 days via IP injection. During the treatment period the clinical, physiological and behavioral parameters including body weight, food and water consumption, body condition score, home cage activity and locomotion were constantly monitored and recorded.
Three days after the last administration animals were anesthetized and blood was collected using a standard retro-orbital puncture from each animal. Next, the mice sacrificed and underwent complete necropsy with gross examination and organ weights. The organs (Heart, Liver, Spleen, kidney, bone marrow, Brain, Lung) were sampled and immersion fixed in 4% paraformaldehyde. Formalin-fixed tissues after dehydration were routinely processed and embedded in paraffin blocks for histopathological examination. 5 μm thick sections taken from these blocks (Thermo Scientific Microm HM355S microtome) were then stained with Hematoxylin and Eosin (Leica ST5010 Autostainer XL) and evaluated under a Leica DM 2500 light microscope by a board-certified veterinary pathologist. Hematology examination was performed using an automate high-resolution flow cytometer, Abbott Cell-Dyn 3700.

[2] = mice, 30 mg/kg, 18 consecutive days injection
[3] = mice, 18 consecutive days of injection, Mean ± SD

Compound: CC(C)C[C@H](NC(=O)CNC(=O)[C@H](CCCNC(=N)N)NC(=O)[C@@H]1CCCN1C(=O)[C@H](CCCNC(=N)N)NC(=O)[C@H](CCCNC(=N)N)NC(=O)[C@@H](NC(=O)[C@H](CC(C)C)NC(=O)[C@H](C)NC(=O)[C@H](CC(C)C)NC(=O)CNC(=O)[C@H](CC(C)C)NC(=O)CNC(=O)[C@@H](N)CCCNC(=N)N)C(C)C)C(=O)NCC(=O)N[C@@H](CC(C)C)C(=O)N[C@@H](C)C(=O)N[C@@H](CC(C)C)C(=O)N[C@H](C(=O)N[C@@H](CCCNC(=N)N)C(=O)N[C@@H](CCCNC(=N)N)C(=O)O)C(C)C [Peptide P2] (H-RGLGLALVRRPRGLGLALVRR-OH)
- E. coli O157 (apparent MIC in screen) (E. coli O157:H7): 6 µg/mL
- MIC ([1]; KEIO WT): 12 µg/mL (≈ 5.22 µM)
- MIC ([1]; Δ Clp A): 12 µg/mL (≈ 5.22 µM)
- MIC ([1]; Δ Clp B): 12 µg/mL (≈ 5.22 µM)
- MIC ([1]; Δ Clp P): 12 µg/mL (≈ 5.22 µM)
- MIC ([1]; Δ Clp S): 12 µg/mL (≈ 5.22 µM)
- MIC ([1]; Δ Clp X): 12 µg/mL (≈ 5.22 µM)
- MIC ([1]; Δ Dan J): 12 µg/mL (≈ 5.22 µM)
- MIC ([1]; Δ Dan K): 6 µg/mL (≈ 2.61 µM)
- MIC ([1]; Δ gro L): 12 µg/mL (≈ 5.22 µM)
- MIC ([1]; Δ htp G): 12 µg/mL (≈ 5.22 µM)
- MIC (E. coli O157): 6 µg/mL (≈ 2.61 µM)
- toxicity towards mammalian cells (HeLa cells): little or no toxicity towards mammalian cells
- adverse effects on repeated dosing (In vivo toxicity test; 6 mice, daily injections at the maximum tolerated dose for 18 days): without any apparent adverse effects
- acute adverse effects, dose escalation (In vivo toxicity test; Swiss mice, intraperitoneal administration of up to 30 mg/kg): no acute adverse effects
- survey of the major organs (In vivo toxicity test; after 18 days dosing and 3 days recovery): no major morphological signs of toxicity
- Organs weights: Brain (In vivo toxicity test; [2]): 0.56 ± 0.02 gr
- Organs weights: Heart (In vivo toxicity test; [2]): 0.20 ± 0.02 gr
- Organs weights: Kidneys (In vivo toxicity test; [2]): 0.58 ± 0.01 gr
- Organs weights: Liver (In vivo toxicity test; [2]): 1.90 ± 0.11 gr
- Organs weights: Spleen (In vivo toxicity test; [2]): 0.12 ± 0.01 gr
- BASO, Basophil absolute count (In vivo toxicity test; [3]): 0.24 ± 0.02
- EOS, Eosinophil absolute count (In vivo toxicity test; [3]): 0.14 ± 0.06
- HCT, Hematocrit (In vivo toxicity test; [3]): 98.87 ± 3.7
- HGB, Hemoglobin concentration (In vivo toxicity test; [3]): 17.8 ± 0.45
- LYM, Lymphocyte absolute count (In vivo toxicity test; [3]): 5.32 ± 0.52
- MCH, Mean Corpuscular Hemoglobin (In vivo toxicity test; [3]): 48.2 ± 0.34
- MCHC, Mean Corpuscular Hemoglobin Concentration (In vivo toxicity test; [3]): 53.7 ± 0.42
- MCV, Mean Corpuscular Volume (In vivo toxicity test; [3]): 273 ± 1.32
- MONO, Monocyte absolute count (In vivo toxicity test; [3]): 0.15 ± 0.05
- MPV, Mean Platelet Volume (In vivo toxicity test; [3]): 16.36 ± 0.2
- NEU, Neutrophil absolute count (In vivo toxicity test; [3]): 0.80 ± 0.06
- PCT, Plateletcrit (In vivo toxicity test; [3]): 0.88 ± 0.05
- PDW, Platelet Distribution Width (In vivo toxicity test; [3]): 49.9 ± 0.43
- PLT, Platelet or Thrombocyte count (In vivo toxicity test; [3]): 1595 ± 50.7
- RBC, Red Blood Cell or Erythrocyte count (In vivo toxicity test; [3]): 10.9 ± 0.46
- WBC, White Blood Cell or Leukocyte count (In vivo toxicity test; [3]): 6.89 ± 0.42
- MTD (In vivo toxicity test; mouse, in vivo, ip, Swiss mice, intraperitoneal, read-out: safe concentration from escalation experiment): 30 mg/kg
